“Also recorded” adds a separate entry of the source.
What was measured:
MDCK-mdr1 cells = experiment: MDCK-mdr1 permeability assay; type: in vitro ADME, canine; details: 10 μM apical, 1 h, 37 °C, pH 7.4
[1] = tested on: neuropathy induced by unilateral sciatic nerve entrapment (SNE); experiment: SNE-induced mechanical allodynia; type: in vivo, rat; details: SNE rats
[2] = tested on: acute nociception in naïve rats; experiment: Tail-flick test; type: in vivo, rat
central CB1Rs = experiment: Tetrad CNS side effect tests; type: in vivo, rat; details: naïve rats; for CNS side effects in catalepsy, rotarod, hypothermia assays: ip, 0.3 mg/kg and 3-fold higher doses; for CNS side effects in catalepsy, motor incoordination, hypothermia assays: oral, up to 10 mg/kg
[3] = Pharmacokinetics: plasma, brain and CSF levels; details: rat, 0.3 mg/kg ip, ~75 min
[4] = tested on: antiallodynic effect of 2-5u in the SNE neuropathy; experiment: Pretreatment with CB1R/CB2R blockers before 2-5u in SNE rats; type: in vivo, rat; details: blocker (2 and 3: 3 mg/kg ip) 30 min before 2-5u 0.6 mg/kg
hCB1R = hCB1R (Homo sapiens, UniProt P21554); experiment: CB1R radioligand displacement binding assay; details: for Ki: read-out: Ki (nM) hCB1R vs CP55,940, [3H]-CP55940 displacement, Cheng–Prusoff
Sequence of hCB1R (P21554 whole entry): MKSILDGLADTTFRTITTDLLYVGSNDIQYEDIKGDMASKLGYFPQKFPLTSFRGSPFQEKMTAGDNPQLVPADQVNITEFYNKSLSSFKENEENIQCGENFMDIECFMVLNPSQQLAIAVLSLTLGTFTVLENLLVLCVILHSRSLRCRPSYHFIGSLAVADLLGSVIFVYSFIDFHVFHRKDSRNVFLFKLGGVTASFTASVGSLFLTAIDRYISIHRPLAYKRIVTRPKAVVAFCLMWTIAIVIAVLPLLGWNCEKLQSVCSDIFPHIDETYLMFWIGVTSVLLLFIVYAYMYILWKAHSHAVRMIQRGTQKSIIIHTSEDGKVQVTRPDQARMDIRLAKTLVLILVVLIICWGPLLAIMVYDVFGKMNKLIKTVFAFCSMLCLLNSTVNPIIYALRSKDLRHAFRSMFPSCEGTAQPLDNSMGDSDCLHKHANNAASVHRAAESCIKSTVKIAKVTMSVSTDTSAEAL

## CCCCCn1cc(C(=O)c2ccc(C(=O)OC)c3ccccc23)c2ccccc21 [1-4a, Methyl 4-[(1-Pentyl-1H-indol-3-yl)carbonyl]naphthalene-1-carboxylate]
MDCK-mdr1 cells
  MDCK B/A ratio (basolateral:apical): 0.00

## CCCCCn1cc(C(=O)c2cccc3ccccc23)c2c(F)cccc21 [1-4h, 4-Fluoro-3-[(naphthalen-1-yl)carbonyl]-1-pentyl-1H-indole]
MDCK-mdr1 cells
  MDCK B/A ratio (basolateral:apical): 0.000

## CCCCCn1cc(C(=O)c2cccc3ccccc23)c2cc(F)ccc21 [1-4i, 5-Fluoro-3-[(naphthalen-1-yl)carbonyl]-1-pentyl-1H-indole]
MDCK-mdr1 cells
  MDCK B/A ratio (basolateral:apical): 0.000

## CCCCCn1cc(C(=O)c2cccc3ccccc23)c2ccc(F)cc21 [1-4j, 6-Fluoro-3-[(naphthalen-1-yl)carbonyl]-1-pentyl-1H-indole]
MDCK-mdr1 cells
  MDCK B/A ratio (basolateral:apical): 0.000

## CCCCCn1cc(C(=O)c2cccc3ccccc23)c2cccc(F)c21 [1-4k, 7-Fluoro-3-[(naphthalen-1-yl)carbonyl]-1-pentyl-1H-indole]
MDCK-mdr1 cells
  MDCK B/A ratio (basolateral:apical): 0.000

## COC(=O)c1ccc(C(=O)c2cn(CCN3CCOCC3)c3ccccc23)c2ccccc12 [1-4o]
MDCK-mdr1 cells
  MDCK B/A ratio (basolateral:apical): 1.02

## C1=C(CCN2CCOCC2)c2ccccc2/C1=C/c1cccc2ccccc12 [2-5a, 4-{2-[(1E)-1-(Naphthalen-1-ylmethylidene)-1H-inden-3-yl]ethyl}-morpholine]
[1]; 0.3 mg/kg ip, 0.3 mg/kg
  suppression of SNE-induced mechanical allodynia: much smaller effect; also recorded: considerably smaller increases in thresholds than 2-5u or 2-5j

## COc1ccc(/C=C2\C=C(CCN3CCOCC3)c3ccccc32)c2ccccc12 [2-5j, 4-{2-[(1E)-1-[(4-Methoxynaphthalen-1-yl)methylidene]-1H-inden-3-yl]ethyl}morpholine]
[2]; oral
  effect in tail-flick assay: small effects in the tail-flick assay
[1]; 0.3 mg/kg ip, 0.3 mg/kg
  suppression of SNE-induced mechanical allodynia: large, reversible decreases in mechanical allodynia; also recorded: complete suppression of mechanical allodynia symptoms
MDCK-mdr1 cells
  MDCK B/A ratio (basolateral:apical): 0.000
Central CB1Rs
  CNS side effects in catalepsy, rotarod, hypothermia assays: no effect in the assays of CNS CB1R activation
  CNS side effects in catalepsy, motor incoordination, hypothermia assays: relative lack of side effects in the catalepsy, motor incoordination, and hypothermia assays

## CCc1ccc(/C=C2\C=C(CCN3CCOCC3)c3ccccc32)c2ccccc12 [2-5t, 4-{2-[(1E)-1-[(4-Ethylnaphthalen-1-yl)methylidene]-1H-indenyl]-ethyl}morpholine]
[2]; oral
  effect in tail-flick assay: small effects in the tail-flick assay
MDCK-mdr1 cells
  MDCK B/A ratio (basolateral:apical): 0.000
Central CB1Rs
  CNS side effects in catalepsy, motor incoordination, hypothermia assays: relative lack of side effects in the catalepsy, motor incoordination, and hypothermia assays

## CCCc1ccc(/C=C2\C=C(CCN3CCOCC3)c3ccccc32)c2ccccc12 [2-5u, 4-{2-[(1E)-1-[(4-Propylnaphthalen-1-yl)methylidene]-1H-inden-3-yl]ethyl}morpholine]
[2]; ip (2-5u 0.3 mg/kg)
  effect in tail-flick assay: small effect in the tail-flick assay; also recorded: small analgesic effect; also recorded: small effects on acute nociception
[2]; oral
  effect in tail-flick assay: small effects in the tail-flick assay
[3]
  CNS penetration (plasma, brain, CSF samples): minimal penetration of 2-5u into the CNS
[1]; 0.3 mg/kg ip, 0.3 mg/kg
  suppression of SNE-induced mechanical allodynia: large, reversible decreases in mechanical allodynia; also recorded: ipsilateral thresholds are increased to levels of predrug contralateral thresholds; also recorded: complete suppression of mechanical allodynia symptoms
[1]; 3 mg/kg oral, 3 mg/kg
  suppression of SNE-induced mechanical allodynia: reversibly suppresses SNE neuropathy symptoms; also recorded: effective in suppressing neuropathy symptoms after oral administration; also recorded: complete suppression of allodynia symptoms at peak effect
MDCK-mdr1 cells
  MDCK B/A ratio (basolateral:apical): 0.000
Central CB1Rs; 0.3 mg/kg
  CNS side effects in catalepsy, rotarod, hypothermia assays: lack effects in the catalepsy, rotarod, or hypothermia assays; also recorded: no effect in the assays of CNS CB1R activation
Central CB1Rs
  CNS side effects in catalepsy, motor incoordination, hypothermia assays: relative lack of side effects in the catalepsy, motor incoordination, and hypothermia assays; also recorded: no significant effect on central CB1Rs

## CCCCCC1=C/C(=C\c2cccc3ccccc23)c2ccccc21 [2-7a, 1-{[(1E)-3-pentyl-1H-inden-1-ylidene]methyl}naphthalene, reference compound]
MDCK-mdr1 cells
  MDCK B/A ratio (basolateral:apical): 0.04

## CCCCCCC(C)(C)c1cc(O)c2c(c1)OC(C)(C)[C@@H]1CC=C(CO)C[C@@H]21 [compound 1, reference compound]
Central CB1Rs; 0.01 mg/kg ip, positive control, 0.01 mg/kg
  CNS side effects in catalepsy (ring), core temperature, rotarod tests: strong CNS side effects; also recorded: profound CNS side effects

## Cc1c(C(=O)NN2CCCCC2)nn(-c2ccc(Cl)cc2Cl)c1-c1ccc(Cl)cc1 [compound 2]
[4]
  effect of pretreatment on antiallodynic effect of 2-5u: completely blocked the antiallodynic effect of 2-5u; also recorded: completely blocks the response to 2-5u

## (1E)-3-hexyl-1-(2-phenylethylidene)-1H-indene [2-7c]
hCB1R
  Ki: 4410 nM
hCB1R; versus 2-7a (pentyl)
  loss of hCB1R affinity versus 2-7a: 256 fold
hCB1R; versus naphthylidene analogue 2-7b (n-hexyl)
  loss of hCB1R affinity versus 2-7b: 10 fold

## N-(3-Carboxybutyl)-3-(1-naphthoyl)-1H-indole [1-4g]
hCB1R
  Ki: > 10000 nM

## N-(3-Ethoxycarbonylbutyl)-3-(1-naphthoyl)-1H-indole [1-4e]
hCB1R
  Ki: 1470 nM

Reference: PMC5474949 (Journal of medicinal chemistry, 2016)
